The target of assay [1] is T1, Angiotensin-converting enzyme (Oryctolagus cuniculus, UniProt P12822).
T1 sequence (P12822 whole entry): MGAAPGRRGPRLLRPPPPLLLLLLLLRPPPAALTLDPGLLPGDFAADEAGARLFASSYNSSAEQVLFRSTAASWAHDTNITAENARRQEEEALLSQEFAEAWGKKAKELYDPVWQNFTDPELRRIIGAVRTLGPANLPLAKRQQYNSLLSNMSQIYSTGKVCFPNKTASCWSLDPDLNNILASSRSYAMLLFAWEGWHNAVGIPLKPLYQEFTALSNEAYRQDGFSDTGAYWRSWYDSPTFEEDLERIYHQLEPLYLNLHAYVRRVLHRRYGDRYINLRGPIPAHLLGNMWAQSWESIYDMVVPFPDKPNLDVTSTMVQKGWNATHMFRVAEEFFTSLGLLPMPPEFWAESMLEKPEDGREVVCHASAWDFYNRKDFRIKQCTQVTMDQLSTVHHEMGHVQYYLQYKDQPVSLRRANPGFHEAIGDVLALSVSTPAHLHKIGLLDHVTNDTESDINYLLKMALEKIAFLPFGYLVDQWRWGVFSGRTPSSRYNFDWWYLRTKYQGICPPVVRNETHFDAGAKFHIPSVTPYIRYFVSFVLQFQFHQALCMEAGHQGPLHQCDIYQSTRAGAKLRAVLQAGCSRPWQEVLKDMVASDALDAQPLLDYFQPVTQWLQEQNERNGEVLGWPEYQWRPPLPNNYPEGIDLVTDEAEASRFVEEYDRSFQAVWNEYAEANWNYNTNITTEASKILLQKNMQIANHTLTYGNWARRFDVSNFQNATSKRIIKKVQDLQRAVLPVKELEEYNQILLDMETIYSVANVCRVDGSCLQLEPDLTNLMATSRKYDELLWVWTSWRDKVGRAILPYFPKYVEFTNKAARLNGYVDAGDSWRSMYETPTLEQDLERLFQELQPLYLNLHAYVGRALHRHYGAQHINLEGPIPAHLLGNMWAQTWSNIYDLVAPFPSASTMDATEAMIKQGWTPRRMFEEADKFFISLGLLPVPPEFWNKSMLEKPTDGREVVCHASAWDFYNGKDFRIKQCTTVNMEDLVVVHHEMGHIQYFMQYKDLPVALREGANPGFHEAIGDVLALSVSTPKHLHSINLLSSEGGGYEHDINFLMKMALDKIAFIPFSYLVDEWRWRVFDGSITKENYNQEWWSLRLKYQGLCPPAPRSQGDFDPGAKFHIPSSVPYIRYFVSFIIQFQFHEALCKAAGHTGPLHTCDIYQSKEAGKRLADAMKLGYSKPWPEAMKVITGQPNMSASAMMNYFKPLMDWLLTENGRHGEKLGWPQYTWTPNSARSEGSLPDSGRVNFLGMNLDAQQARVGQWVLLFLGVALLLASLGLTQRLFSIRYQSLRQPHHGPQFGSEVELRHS
Briefly: Binding affinity to angiotensin-converting enzyme in rabbit lung assessed as inhibition constant. The assay is classed as tissue-based.

Assay [2] deals with T2, Neprilysin (Rattus norvegicus, UniProt P07861).
T2 sequence (P07861 whole entry): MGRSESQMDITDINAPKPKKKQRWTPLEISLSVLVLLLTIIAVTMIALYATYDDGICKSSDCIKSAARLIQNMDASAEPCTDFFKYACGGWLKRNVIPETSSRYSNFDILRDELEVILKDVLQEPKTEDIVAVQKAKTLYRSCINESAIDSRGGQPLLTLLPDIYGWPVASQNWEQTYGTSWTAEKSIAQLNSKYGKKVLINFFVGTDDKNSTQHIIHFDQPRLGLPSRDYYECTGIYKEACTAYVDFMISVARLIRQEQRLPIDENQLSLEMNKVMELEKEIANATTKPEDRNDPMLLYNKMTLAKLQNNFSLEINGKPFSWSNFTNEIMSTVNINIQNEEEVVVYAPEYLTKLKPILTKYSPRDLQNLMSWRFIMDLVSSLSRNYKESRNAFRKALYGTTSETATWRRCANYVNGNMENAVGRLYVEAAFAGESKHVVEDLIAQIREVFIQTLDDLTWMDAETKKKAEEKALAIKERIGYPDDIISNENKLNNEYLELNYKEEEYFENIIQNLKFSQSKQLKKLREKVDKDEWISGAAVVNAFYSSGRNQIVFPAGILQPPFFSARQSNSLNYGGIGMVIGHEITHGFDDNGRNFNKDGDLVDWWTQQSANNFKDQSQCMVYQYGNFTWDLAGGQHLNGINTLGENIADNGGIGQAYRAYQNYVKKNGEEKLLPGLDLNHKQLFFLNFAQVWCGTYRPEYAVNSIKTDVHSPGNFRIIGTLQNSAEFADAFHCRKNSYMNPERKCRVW
Put plainly: Binding affinity to rat kidney neutral endopeptidase. The assay is classed as tissue-based.

The target in assay [3] is Somatostatin receptor type 1 (Homo sapiens, UniProt P30872). Briefly: Inhibition of human somatostatin receptor type 1.
Assay [4] addresses Somatostatin receptor type 4 (Homo sapiens, UniProt P31391). Put plainly: Inhibition of human somatostatin receptor type 4.
Assay [5] addresses T3, Somatostatin receptor type 5 (Rattus norvegicus, UniProt P30938).
T3 sequence (P30938 whole entry): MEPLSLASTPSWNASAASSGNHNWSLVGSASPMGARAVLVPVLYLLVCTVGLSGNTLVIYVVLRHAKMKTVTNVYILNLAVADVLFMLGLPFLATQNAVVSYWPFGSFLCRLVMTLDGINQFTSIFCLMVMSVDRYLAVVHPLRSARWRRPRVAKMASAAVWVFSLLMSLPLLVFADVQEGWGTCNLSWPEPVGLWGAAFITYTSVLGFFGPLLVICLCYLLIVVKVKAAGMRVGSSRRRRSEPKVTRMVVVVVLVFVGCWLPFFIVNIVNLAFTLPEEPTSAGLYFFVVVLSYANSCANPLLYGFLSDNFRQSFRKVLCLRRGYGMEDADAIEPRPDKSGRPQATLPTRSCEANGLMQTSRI
Put plainly: Inhibition of rat somatostatin receptor type 5.

The target of assay [6] is Angiotensin-converting enzyme (Homo sapiens, UniProt P12821). Put plainly: Inhibition of angiotensin-converting enzyme (unknown origin).
Assay [7] deals with Neprilysin (Homo sapiens, UniProt P08473). Briefly: Inhibition of neutral endopeptidase (unknown origin).
The target in assay [8] is Substance-P receptor (Homo sapiens, UniProt P25103). Put plainly: Inhibition of [3H]SP binding to human neurokinin receptor 1 expressed in CHO cells. The assay is classed as cell-based.
In assay [9] the target is T4, Mu-type opioid receptor (Homo sapiens, UniProt P35372). Put plainly: Binding affinity to mu opioid receptor (unknown origin) assessed as inhibition constant.
The target of assay [10] is T5, Delta-type opioid receptor (Homo sapiens, UniProt P41143). Briefly: Binding affinity to delta opioid receptor (unknown origin) assessed as inhibition constant.
The nature of assay [11]: Inhibition of angiotensin-converting enzyme (unknown origin).
Assay [12] concerns the target Somatostatin receptor type 2 (Homo sapiens, UniProt P30874). Put plainly: Inhibition of human somatostatin receptor type 2.
Assay [13] has as its target Somatostatin receptor type 3 (Homo sapiens, UniProt P32745). Briefly: Inhibition of human somatostatin receptor type 3.
Assay [14] addresses Somatostatin receptor type 5 (Homo sapiens, UniProt P35346). Put plainly: Inhibition of human somatostatin receptor type 5.
For assay [15], the target named is T1, Angiotensin-converting enzyme. Put plainly: Inhibition of rabbit lung angiotensin-converting enzyme. The assay is classed as tissue-based.
The species named for assay [16] is Mus musculus. Briefly: Inhibition of electrically evoked mouse vas deferens contraction. The assay is classed as functional.
For assay [17], the target named is T6, Renin (Homo sapiens, UniProt P00797).
T6 sequence (P00797 whole entry): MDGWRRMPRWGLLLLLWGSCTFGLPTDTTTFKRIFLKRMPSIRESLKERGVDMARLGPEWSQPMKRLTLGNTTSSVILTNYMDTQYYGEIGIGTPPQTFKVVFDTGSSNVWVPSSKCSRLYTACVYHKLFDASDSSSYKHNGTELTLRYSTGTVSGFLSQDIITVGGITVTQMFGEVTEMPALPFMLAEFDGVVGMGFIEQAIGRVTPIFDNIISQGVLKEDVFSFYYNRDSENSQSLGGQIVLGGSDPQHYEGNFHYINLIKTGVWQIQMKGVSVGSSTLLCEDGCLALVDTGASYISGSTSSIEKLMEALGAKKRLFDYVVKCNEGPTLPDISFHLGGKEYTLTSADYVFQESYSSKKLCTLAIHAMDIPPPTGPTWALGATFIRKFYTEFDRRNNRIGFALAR
Put plainly: Inhibition of human plasma renin. The assay is classed as cell-free.

In assay [18] the target is T4, Mu-type opioid receptor. Put plainly: Inhibition of MOR (unknown origin).
Assay [19] has as its target T5, Delta-type opioid receptor. Put plainly: Inhibition of DOR (unknown origin).

As usually defined, the Ki is a measure of affinity in units of concentration, obtained from inhibition or displacement. One may read the IC50 as the point on the concentration scale where inhibition reaches its midpoint. Low values mean higher potency, high ones lower potency.

Where a SMILES comes first, the peptide text is derived from it. Bridges are numbered along the chain shown (N, C = ends). [ ]: non-standard residue; d: D form. Aic = NC1(C(=O)O)Cc2ccccc2C1; dOrn = NCCC[C@@H](N)C(=O)O; Orn = NCCC[C@H](N)C(=O)O

Regarding `O=C(N[C@H]1Cc2ccccc2[C@H]2CCC[C@@H](C(=O)O)N2C1=O)[C@H](S)Cc1ccccc1`, the Ki came to 4.5 nM in [1] and 0.07 nM in assay [2].

As for `CC(=O)N[C@@H](Cc1ccccc1)C(=O)N[C@@H]1Cc2c([nH]c3ccccc23)CN([C@@H](CCCCN)C(=O)N[C@H](C(N)=O)[C@@H](C)O)C1=O`, the IC50 amounted to 253 nM in assay [3], 36 nM in assay [4] and 217 nM in assay [5]. As to `C[C@H](NC(=O)[C@@H](CS)Cc1ccccc1)C(=O)N1Cc2ccccc2C[C@H]1C(=O)O`, the IC50 in assay [6] was found to be 14 nM; in assay [7], 3.9 nM. In turn, `CC(=O)NC1(C(=O)OCc2cc(C(F)(F)F)cc(C(F)(F)F)c2)CCc2[nH]c3ccccc3c2C1` (configuration not stated) came in with a Ki in [8] of 765 nM. Consider `NC(=O)[C@@H]1CCC(=O)NCCC[C@@H](NC(=O)[C@@H](N)Cc2ccc(O)cc2)C(=O)N[C@@H](Cc2ccccc2)C(=O)N1` (H-Y[dOrn]FE-NH2; lactam 2-4), for which the values for the Ki in assay [9] and in assay [10] were 0.98 nM and 3.21 nM, respectively.

Consider `CC(CS)C(=O)N1Cc2ccccc2C1C(=O)O` (configuration not stated), for which the IC50 in assay [11] stood at 14000 nM. In other words, the double-digit micromolar range. In assay [8], `CC(C)C[C@H](NC(=O)CNC(=O)OCc1ccccc1)C(=O)NC1(C(=O)OCc2cc(C(F)(F)F)cc(C(F)(F)F)c2)CNc2[nH]c3ccccc3c2C1` (some centres not stated) came in with a Ki of 200 nM. As for `CC(=O)N[C@@H](Cc1ccccc1)C(=O)N[C@@H](Cc1c[nH]c2ccccc12)C(=O)N[C@@H](CCCCN)C(=O)N[C@H](C(N)=O)[C@@H](C)O` (Ac-FWKT-NH2), the IC50 in [3], in assay [12], in [13], in assay [4] and in assay [14] was more than 1000 nM each time. As to `O=C(N[C@H]1Cc2ccccc2[C@H]2CCC[C@@H](C(=O)O)N2C1=O)[C@@H](S)Cc1ccccc1`, the results for the inhibition constant (Ki) in [1] and in assay [2] were 0.11 nM and 0.08 nM, respectively. `CC(C)C[C@H](NC(=O)CNC(=O)OCc1ccccc1)C(=O)N1Cc2[nH]c3ccccc3c2C[C@H]1C(=O)OCc1cc(C(F)(F)F)cc(C(F)(F)F)c1` gave a Ki in assay [8] of 63 nM.

Regarding `CC(=O)N[C@@H](Cc1ccccc1)C(=O)N[C@]1(C)Cc2c([nH]c3ccccc23)CN([C@@H](CCCCN)C(=O)N[C@H](C(N)=O)[C@@H](C)O)C1=O`, the IC50 in assay [3], in [12], in assay [13], in assay [4] and in assay [14] was more than 1000 nM throughout. In the case of `O=C(O)[C@H](CCc1ccccc1)N[C@H]1CCc2cccc3c2N(C1=O)[C@H](C(=O)O)C3`, the IC50 in [15] is 5.2 nM. This counts as single-digit nanomolar. On to `CC(C)[C@H](NC(=O)[C@H](CC(=O)O)NC(=O)C1(NC(=O)[C@@H](C)NC(=O)[C@@H](N)Cc2ccc(O)cc2)Cc2ccccc2C1)C(=O)N[C@H](C(=O)NCC(N)=O)C(C)C` (H-Y[dA][Aic]DVVG-NH2), for which the Ki in [10] was determined as 4.96 nM. In assay [16], the IC50 was 0.08 nM. In the case of `NC(=O)[C@@H]1CCC(=O)NCCC[C@H](NC(=O)[C@@H](N)Cc2ccc(O)cc2)C(=O)NC2(Cc3ccccc3C2)C(=O)N1` (H-Y[Orn][Aic]E-NH2; lactam 2-4), the Ki in [9] was 4.21 nM; in [10], 209 nM. In the case of `C[C@H](NC(=O)[C@@H](CS)Cc1ccccc1)C(=O)N1c2ccccc2C[C@H]1C(=O)O`, the IC50 in [6] amounted to 7.8 nM; in assay [7] it was 2.6 nM.

In assay [8], `CC(=O)N1Cc2[nH]c3ccccc3c2C[C@H]1C(=O)OCc1cc(C(F)(F)F)cc(C(F)(F)F)c1` returned an inhibitory constant (Ki) of 390 nM. For the molecule `CC(CS)C(=O)N1CCc2ccccc2C1C(=O)O` (configuration not stated), the IC50 in assay [11] amounted to 58000 nM. Molecule `CCCCNC(=O)[C@@H](C[C@H](O)[C@H](CC1CCCCC1)NC(=O)[C@H](CCCC)NC(=O)[C@H](Cc1ccccc1)NC(C)=O)C(C)C` displayed an IC50 in assay [17] of 0.84 nM. As to `C[C@@H](NC(=O)[C@@H](N)Cc1ccc(O)cc1)C(=O)N[C@@H](Cc1ccccc1)C(=O)NCC(N)=O` (H-Y[dA]FG-NH2), the IC50 in assay [18] came to 36.7 nM; in [19], 1250 nM.
